Assay results published in patent US10028992B2, “Methods of treating muscular dystrophy” (BOARD OF REGENTS OF THE NEVADA SYSTEM OF HIGHER EDUCATION …, priority 2012, dated 2018).
Where two headings read alike, the source gives them in different places.

How the values were obtained:
α7 integrin promoter = experiment: muscle cell-based assay: α7βgal+/− myoblasts/myotubes, LacZ reporter, β-galactosidase cleavage of FDG; set-up: species or system mouse; details: for EC50: read-out: EC50; for Result in α7+/− β-galactosidase assay: Myoblasts
How it was run: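 Primary α7βgal+/− mouse myoblasts (LacZ knocked into α7 integrin exon 1, promoter retained), differentiated; promoter activity read as β-galactosidase conversion of non-fluorescent FDG to fluorescein. Hits followed by dose-response, western analysis and myostatin counterscreen.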

α7 integrin [1] = experiment: western analysis of α7 integrin in DMD myoblasts/myotubes; format: cell-based, human; details: 2,2-dipyridyl 31.25 μM, deferoxamine 5 and 10 μM, 132 hrs
Description: (§1) FIGS. 13A-13D illustrate western blot studies in which protein extracts from C2C12 (A, B) and DMD (C, D) myoblasts were first treated with PBS or 100 nM LAM-111 and then subjected to western analysis of the α7B integrin and the Cox-1 loading standard. *=p<0.05.
Protein was extracted from the cells and subjected to western blotting using antibodies against α7 integrin. α-tubulin was used as a loading control.
(§2) It is contemplated that the identified parent scaffolds (Tables 8 and 9) increase α7 integrin expression through a similar mechanism.

α7 integrin [2] = experiment: western analysis of α7 integrin in C2C12 myoblasts/myotubes; format: cell-based, mouse; details: C2C12 myotubes
Description: as §1
Bands were quantified using Image J software and then graphed as α7 Integrin protein levels relative to GAPDH protein levels. * denotes a significant difference in relative protein levels with **p<0.01.
The ability of laminin to regulate α7 integrin expression, α7βgal^+/− myoblasts were exposed to 0-200 nM laminin-111 for 24 hours. The activity of the α7 integrin promoter was measured by β-galactosidase cleavage of the non-fluorescent compound fluorescein di-β-D-galactopyranoside (FDG) to fluorescein. […] The ability of laminin-111 to increase α7 integrin expression was confirmed by western analysis using mouse and human DMD muscle cells (FIGS. 2A-2D).
as §2

Mdx/utr−/− mice = experiment: treatment of mdx/utr−/− mice; details: mouse, in vivo

Compound | Optimal Concentration (α7 integrin promoter) | EC50 (α7 integrin promoter) | α7 integrin protein (α7 integrin [1]) | Result in α7+/− β-galactosidase assay (α7 integrin promoter; 0.5 uM) | Result in α7+/− β-galactosidase assay (α7 integrin promoter; 1 uM) | Result in α7+/− β-galactosidase assay (α7 integrin promoter; 5 uM) | Result in α7+/− β-galactosidase assay (α7 integrin promoter; 10 uM) | Result in α7+/− β-galactosidase assay (α7 integrin promoter; 20 uM) | Result in α7+/− β-galactosidase assay (α7 integrin promoter; 40 uM) | other results
c1ccc(-c2ccccn2)nc1 [2,2-Dipyridyl, 2,2-dipyridyl, reference compound] | 125 μm | 62.5 µM | increased |  |  |  |  |  |  | 
CC(C)CCC[C@@H](C)[C@H]1CC[C@H]2[C@@H]3CC(=O)[C@H]4C[C@@H](O)CC[C@]4(C)[C@H]3CC[C@]12C [5α-cholestan-3β-ol-6-one, reference compound] | 20 μm | 6 µM | increased |  |  |  |  |  |  | EC100 (α7 integrin promoter): 20 µM
CCCC(CCC)C(=O)O [Valproic acid, valproic acid] |  |  |  |  |  |  |  |  |  | EC50 (α7 integrin promoter; Mus musculus, enhancement of α7 integrin expression in muscle cells): 500 µM; Optimal Concentration (α7 integrin promoter; enhancement of α7 integrin expression in muscle cells): 2 mM; α7 integrin protein (α7 integrin [2]): increased; Akt signaling pathway in muscle (Mdx/utr−/− mice): activation; fibrosis (Mdx/utr−/− mice): reduced fibrosis; mobility (Mdx/utr−/− mice): improved mobility; muscle disease (Mdx/utr−/− mice; listed as Valproic Acid): reduced muscle disease; muscle disease (Mdx/utr−/− mice; listed as valproic acid): reduced overall muscle disease
Cc1[nH]c(/C=C2\C(=O)Nc3ccc([S+](=O)([O-])Cc4c(Cl)cccc4Cl)cc32)c(C)c1C(=O)C1CCCN1CN1CCCC1 (stereo not drawn) [drawing 725] |  |  |  | 0.05199 | 0.07607 | −0.1295 | −0.4121 | −0.9816 | −0.9806 | 
O=C1Nc2ccccc2/C1=C1/Nc2ccccc2/C1=N\O [drawing 726] |  |  |  | 0.07252 | 0.1204 | −0.1537 | −0.432 | −0.6932 | −0.758 | 
